# According to BindingDB's records for doi:10.1021/acs.jnatprod.5b00104 (Peking Union Medical College, 2015):
# pEC50: −log10 of the molar value.
# Target: T1, X-box-binding protein 1 (Rattus norvegicus, UniProt Q9R1S4)
# T1 sequence (Q9R1S4 whole entry): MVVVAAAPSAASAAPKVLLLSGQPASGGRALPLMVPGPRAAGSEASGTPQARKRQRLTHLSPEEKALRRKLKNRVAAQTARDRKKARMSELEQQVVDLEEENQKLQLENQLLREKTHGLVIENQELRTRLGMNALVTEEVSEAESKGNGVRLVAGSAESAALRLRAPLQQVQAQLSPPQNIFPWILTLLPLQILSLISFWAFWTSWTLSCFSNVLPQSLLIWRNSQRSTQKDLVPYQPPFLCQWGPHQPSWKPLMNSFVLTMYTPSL
# Assay: ChEBML_1526682
# From the text: Transactivation of XBP1 in rat IEC-6 cells after 48 hrs by dual luciferase reporter gene assay
row,pEC50,SMILES
1,6.47,C/C1=C/C[C@@H](O)[C@@]2(C)CC[C@@](C(C)C)(C[C@@H](O)[C@]3(C)CC[C@H]1O3)O2
2,5.94,CC(C)[C@@]12CC[C@@](C)(O1)[C@H](O)CC/C(C=O)=C/CC[C@@]1(C)O[C@@H]1C2
3,6.06,C/C1=C\[C@@H](O)C[C@@]2(C)O[C@@H]2C[C@]2(C(C)C)CC[C@@](C)(O2)[C@H](O)CC1=O
4,6.38,C/C1=C\CC[C@@]2(C)O[C@@H]2C[C@]2(C(C)C)CC[C@@](C)(O2)[C@H](O)CC1=O
